Marks after values point to notes of the source that are not given here.
Tests used:
Format in all cases: cell-based
[1] = tested on: Nannochloropsis; assay: Example One: pond culture passed through ozone generator, effect on Nannochloropsis
Method: (§1) In the following examples, Nannochloropsis was grown in outdoor, open, three-square meter ponds in Vero Beach, Florida. The climate in Vero Beach is semitropical, with mild, cool winters and hot, humid summers. It is a challenging climate for keeping outdoor algal cultures stable and productive. The overnight warmth encourages predation by protozoa, rotifers, and crustaceans. The humidity allows the airborne transport of competing algae, and thus increases the rate of invasion.
(§2) Ozone was added to an algal cultivation system using a commercial ozone generator with accompanying liquid pump, venturi, and air dryer. The machine used was a small model capable of generating 10 grams of ozone per hour. The flow rate of liquid through the generator was about 16 liters per minute. At fifty percent (50%) of maximal ozone generation, the concentration of ozone in the liquid after one pass through the ozone generator was 4.6 mg/L, and at 100% was 9.6 mg/L.
(§3) Two three-square meter ponds were started by taking 500L of culture from a larger pond and passing it through the ozone generator once. One pond was started with the ozonator setting at 50%, the other pond was started with the ozonator setting at 100%. The original algal culture had numerous clumps of Nannochloropsis, cell debris, various diatoms, and some ciliated protozoa grazers.
The two algal cultures were allowed to grow for two days without dilution, but with nutrient addition to see whether the ozone treatment changed the production of biomass and the subsequent stability of the cultures. After two days of batch growth, each pond was diluted one third per day and recirculated each day through the ozone generator for 30 minutes. During this time period about 500L, or one volume equivalent was treated. As before, one pond was passed through the machine at 50% setting and one at 100% setting.

[2] = tested on: diatoms; assay: Example One: pond culture passed through ozone generator, effect on diatoms; details: ozonator setting 50% (4.6 mg/L) or 100% (9.6 mg/L)
Method: as §1, §2, §3

[3] = tested on: ciliated protozoa grazers; assay: Example One: pond culture passed through ozone generator, effect on grazers; details: ozonator setting 50% (4.6 mg/L) or 100% (9.6 mg/L)
Method: as §1, §2, §3

[4] = tested on: Nannochloropsis; assay: Example Two: ozone skid tests on outdoor ponds D4, MP1, 25A, Nannochloropsis productivity and resistance
Method: as §1
(§4) An ozone skid was assembled on-site utilizing a dry air feed ozone generator capable of producing 10 g/h of ozone.
(§5) A small pump was connected to the system with the ozone added to the liquid recycle line via a Mazzei gas to liquid injector capable of flow rates between 13.2-28.35 1pm@pressures ranging from 15-25 psi. Tests were run on ponds D4 (3 m^2 surface area), MP1 (3 m^2 surface area), and 25A (25 m^2 surface area) with salinities ranging from 20-24 ppt using flow rates of 13.2 and 15.6 1pm@20 psi. The ozonator is equipped with a variable transformer that offers the ability to vary ozone dosage between 0-100%. Tests were run at ozone concentrations of 25%, 50%, 75%, and 100% at flow rates of 13.2 and 15.6 1pm.
Productivity results of the three pond systems run at the high concentrations are listed below:
(§6) Nannochloropsis was unaffected by ozone at these dosages.
(§7) Using the skid mounted system as an in-situ transfer treatment to inoculate new ponds was also tested with very favorable results. Both D4 (3 m^2) and MP1 (3 m^2) were filled with ozone treated inoculums from one of the larger ponds that had large amounts of clumps and decreasing productivity. The effect of this was that most of the clumps (>80%) were broken up and the grazers present inside of the clumps were destroyed as well as free grazers and diatoms in the solution with no effect on Nannochloropsis.

[5] = tested on: diatoms; assay: Example Two: ozone skid tests on outdoor ponds, ozone disinfection of diatoms
Method: as §1, §4, §5, §6, §7

[6] = tested on: grazers; assay: Example Two: ozone skid tests on outdoor ponds, ozone disinfection of grazers
Method: as §1, §4, §5, §6, §7

[7] = tested on: Nannochloropsis; assay: Exposure of Nannochloropsis cultures to extremely high (shock) levels of ozone; details: above 30 milligrams/liter ozone, exposure not prolonged
Description: At alternative step 135, if the level or amount of predators and/or invaders exceeds an actual or desired level, the ozone concentration of the algae cultivation system may be adjusted by applying an effective “shock” amount of ozone. The ozone concentration of the algae cultivation system may be adjusted via the inlet stream that feeds into the algae cultivation system. Applying an effective shock amount of ozone to the inlet stream may result in an initial ozone concentration of the inlet stream above 10 milligrams/liter, which feeds into the algae cultivation system. An unexpected result observed via the experiments described herein is that Nannochloropsis cultures exposed to extremely high levels of ozone (above 30 milligrams/liter) recover (i.e., the Nannochloropsis cultures were not killed), provided the exposure to the ozone is not prolonged. […] Note: steps 130 and 135 may be performed in alternating or rotating fashion, provided the ozone concentration is properly observed.

[8] = 25 m^2 pond 25A, side stream treated
[9] = in-situ transfer treatment of inoculums for D4 and MP1
[10] = 3 m^2 ponds D4 and MP1, concentrations of ozone tested

With `O=[O+][O-]` [Ozone, ozone] the “Survival of Nannochloropsis after one pass through the ozone generator” value ([1]; 500L culture, one pass, ozonator setting 50% (4.6 mg/L) or 100% (9.6 mg/L)) was “only single cells of Nannochloropsis survived”, the “Ill effects from the ozone on Nannochloropsis ponds” value ([1]; both ponds (50% and 100% setting), daily 30 minute recirculation for three days) was “no ill effects” and the “Production of biomass above that of a control pond” value ([1]; both ponds (50% and 100% setting), recirculated 30 minutes per day through ozone generator for three days, diluted one third per day) was 20%. For the same compound, the “Clumps of Nannochloropsis after one pass through the ozone generator” value ([1]; one pass, ozonator setting 50% (4.6 mg/L) or 100% (9.6 mg/L)) was “completely broken up”, the “Diatoms after one pass through the ozone generator” value [2] was “killed” and the “Grazers after one pass through the ozone generator” value [3] was “killed”. For the same compound, the “Effect of ozone on Nannochloropsis” value ([4]; 3 m^2 ponds D4 and MP1, at these dosages) was “unaffected”, the “Clumping after exposure to ozone” value [4, 8] was “clumping did not become as dramatic of a problem” and the Productivity ([4]; Pond 25A (25 m^2), Jul. 09, 2008, total 5950 mg O3, 5615 liters recycled) was 16.1 g/m^2/day. The Productivity ([4]; Pond 25A (25 m^2), Jul. 10, 2008, total 5950 mg O3, 5615 liters recycled) was 4.6 g/m^2/day, the Productivity ([4]; Pond 25A (25 m^2), Jul. 11, 2008, total 5950 mg O3, 5615 liters recycled, pond temperature reached 39° C.) was −8.3* g/m^2/day and the Productivity ([4]; Pond 25A (25 m^2), Jul. 12, 2008, total 5950 mg O3, 5615 liters recycled) was 12.2 g/m^2/day. For the same compound, the Productivity ([4]; Pond 25A (25 m^2), Jul. 13, 2008, total 5950 mg O3, 5615 liters recycled) was 10.7 g/m^2/day, the Productivity ([4]; Pond 25A (25 m^2), Jul. 14, 2008, total 5950 mg O3, 5615 liters recycled) was 8.0 g/m^2/day and the Productivity ([4]; Pond D4 (3 m^2), Jul. 09, 2008, total 500 mg O3, 470 liters recycled) was 15.4 g/m^2/day. For the same compound, the Productivity ([4]; Pond D4 (3 m^2), Jul. 10, 2008, total 500 mg O3, 470 liters recycled) was 16.1 g/m^2/day, the Productivity ([4]; Pond D4 (3 m^2), Jul. 11, 2008, total 500 mg O3, 470 liters recycled) was 16.0 g/m^2/day and the Productivity ([4]; Pond D4 (3 m^2), Jul. 12, 2008, total 500 mg O3, 470 liters recycled) was 8.4 g/m^2/day. It also gave a Productivity ([4]; Pond D4 (3 m^2), Jul. 13, 2008, total 500 mg O3, 470 liters recycled) of 12.2 g/m^2/day, a Productivity ([4]; Pond D4 (3 m^2), Jul. 14, 2008, total 500 mg O3, 470 liters recycled) of 14.9 g/m^2/day and a Productivity ([4]; Pond MP1 (3 m^2), Jul. 09, 2008, total 500 mg O3, 470 liters recycled) of 13.3 g/m^2/day. It also gave a Productivity ([4]; Pond MP1 (3 m^2), Jul. 10, 2008, total 500 mg O3, 470 liters recycled) of 17.2 g/m^2/day, a Productivity ([4]; Pond MP1 (3 m^2), Jul. 11, 2008, total 500 mg O3, 470 liters recycled) of 16.9 g/m^2/day and a Productivity ([4]; Pond MP1 (3 m^2), Jul. 12, 2008, total 500 mg O3, 470 liters recycled) of 9.0 g/m^2/day. For the same compound, the Productivity ([4]; Pond MP1 (3 m^2), Jul. 13, 2008, total 500 mg O3, 470 liters recycled) was 16.0 g/m^2/day, the Productivity ([4]; Pond MP1 (3 m^2), Jul. 14, 2008, total 500 mg O3, 470 liters recycled) was 13.4 g/m^2/day and the “Effect on Nannochloropsis” value [4, 9] was “no effect”. For the same compound, the Clumps broken up ([4]; in-situ transfer treatment: D4 and MP1 filled with ozone treated inoculums from a larger pond with large amounts of clumps) was over 80%, the “Clump formation after daily repeated exposure to ozone” value ([4]; small 3 m^2 ponds D4 and MP1) was “clumps did form in large numbers” and the “Effect of ozone exposure on diatoms present” value [5, 10] was “adversely affected after exposure to ozone resulting in their elimination”. For the same compound, the “Effect of ozone exposure on diatoms” value [5, 8] was “similarly affected”, the “Free diatoms in the solution” value [5, 9] was “destroyed” and the “Effect of ozone exposure on grazers present” value [6, 10] was “adversely affected after exposure to ozone resulting in their elimination”. The “Effect of ozone exposure on grazers” value [6, 8] was “similarly affected”, the “Grazers inside of the clumps and free grazers in the solution” value [6, 9] was “destroyed” and the “Outcome of Nannochloropsis cultures after extremely high levels of ozone” value [7] was “recover”.

Reference: patent publication US20100196995A1, “Systems and methods for maintaining the dominance and increasing the biomass production of nannochloropsis in an algae cultivation system” (priority 2009, published 2010)
